# What was measured:
# [1] = target: T1, Caspase-1 (Homo sapiens) (UniProt P29466); assay: Inhibition of caspase1 in differentiated human THP-1 cells at 100 ug/ml after 24 hrs by fluorometric assay; format: cell-based
# T1 sequence (whole entry): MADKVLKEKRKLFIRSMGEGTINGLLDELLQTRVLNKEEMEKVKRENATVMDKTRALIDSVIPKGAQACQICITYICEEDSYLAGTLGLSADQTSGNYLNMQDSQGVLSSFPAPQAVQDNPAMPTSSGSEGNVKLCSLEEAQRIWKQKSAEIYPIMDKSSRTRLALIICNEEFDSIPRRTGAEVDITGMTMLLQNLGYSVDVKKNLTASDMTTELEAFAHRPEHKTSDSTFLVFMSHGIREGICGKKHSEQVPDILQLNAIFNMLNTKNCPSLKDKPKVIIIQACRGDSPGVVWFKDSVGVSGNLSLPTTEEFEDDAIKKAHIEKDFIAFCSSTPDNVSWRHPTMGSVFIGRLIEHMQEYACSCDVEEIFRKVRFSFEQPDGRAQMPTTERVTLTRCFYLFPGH
# [2] = target: T1, Caspase-1 (Homo sapiens); assay: Inhibition of caspase1 in differentiated human THP-1 cells at 0.0005 ug/ml after 24 hrs by fluorometric assay; format: cell-based
SMILES,inhibition [1],inhibition [2]
C=C1[C@@]2(C)C[C@H]3[C@]4(C)CCC(=O)C(C)(C)[C@H]4CC[C@]3(C)[C@]1(C(=O)OC)C(=O)[C@@](C)(O)C2=O,97%,
C=C1[C@@]2(C)C[C@H]3C(C)=C4CC(=O)OC(C)(C)C4=CC[C@]3(C)[C@]1(C(=O)OC)C(=O)[C@@](C)(O)C2=O,89%,
C=C1[C@@]2(C)C[C@H]3[C@]4(C)CCC(=O)OC(C)(C)[C@@H]4CC[C@]3(C)[C@]1(C(=O)OC)C(=O)[C@@](C)(O)C2=O,77%,
C=C1[C@@]2(C)C[C@H]3[C@]4(C)CC[C@@H](O)C(C)(C)[C@H]4CC[C@]3(C)[C@]1(C(=O)OC)C(=O)[C@@](C)(O)C2=O,68%,
CC(=O)N[C@@H](Cc1ccc(O)cc1)C(=O)N[C@H](C(=O)N[C@@H](C)C(=O)N[C@H](C=O)CC(=O)O)C(C)C,,100%

# The remaining lines, values ahead:
inhibition [1],inhibition [2],SMILES
100%,,C=C1[C@@]2(C)C[C@@H]3[C@](C)(CC=C4C(C)(C)OC(=O)CC[C@]43C)[C@]1(C(=O)OC)C(=O)[C@@](C)(O)C2=O
0%,,C=C(C)C1=CC[C@@]2(C)[C@@H](C[C@]3(C)C(=C)[C@@]2(C(=O)OC)C(=O)[C@@](C)(O)C3=O)[C@]1(C)CCC(=O)O
